# Measured values taken from patent publication US20170002313A1, “COMPOSITIONS AND METHODS OF OBTAINING AND USING ENDODERM AND HEPATOCYTE CELLS” (Genentech Inc., priority 2012, published 2017).
# B1: Activin A: human Activin A (Peprotech), member of the TGF beta family (protein, UniProt P08476 311-426, looked up)
# Inhibin beta A chain: GLECDGKVNICCKKQFFVSFKDIGWNDWIIAPSGYHANYCEGECPSHIAGTSGSSLSFHSTVINHYRMRGHSPFANLKSCCVPTKLRPMSMLYYDDGQNIIKKDIQNMIVEECGCS
# modifications: Inhibin beta A chain homodimer
# Tests used:
# hESC-derived cells = assay: xCELLigence proliferation and viability time course; assay type: cell-based, human; settings: 12 days, no medium change; Activin A + 750 nM Compound A, or Activin A + Wnt3a + 5 μM LY294002
# Description: The hESC-derived cells grown under each condition were assayed for their proliferation and viability once a day for 12 days with no medium change using Roche's xCELLigence System according to standard protocol.
# xCELLigence measured proliferation and viability as a function of impedance signal. High impedance signals indicated cell attachment to the surface of the culture dish, which is associated with increased proliferation. In contrast low impedance signals indicated cells' detachment from the surface of the culture dish, which is associated with cell death. […] The experiments whose results are depicted in FIG. 8 were performed in duplicate. Accordingly, there are two curves for each condition.
# [1] = system: hESC-derived endoderm cells; assay: CellTiter-Glo Luminescent Cell Viability Assay; assay type: cell-based, human; settings: Activin A + 100 nM to 1.5 μM Compound A, 7 days
# Text: In this assay, metabolically active cells in each sample tested were quantified as a function of ATP levels produced by the sample.
# [2] = system: human embryonic stem cells (hESC); assay: Endoderm differentiation of hESC with small-molecule inhibitors, flow cytometry of endoderm markers; assay type: cell-based
# Text: A variety of cell-type specific markers were used to monitor the differentiation of stem cells into endoderm cells in the flow cytometry, fluorescence imaging, and immunoassay experiments described below. To detect endoderm conversion, hESC-derived cell samples were stained for the expression of SOX17, FoxA2, and CXCR4 proteins. SOX17, FoxA2, and CXCR4 are proteins that are expressed by endoderm cells but not by stem cells. To detect stem cells, cell samples were stained for the expression of OCT4, a protein expressed by stem cells but not by endoderm cells.
# Undifferentiated human embryonic stem cells (hES) were maintained at a density of 40,000 cells/cm^2 on qualified matrigel (BD, #354277) in TesR™2 medium ([…]™ Technologies #05860). Cultures were manually passaged twice a week. To prepare for endoderm differentiation, hESC cells were passaged into TesR™2 medium overnight. The following day, the TesR™2 medium was replaced with basal medium (DMEM/F12+Glutamax (Invitrogen, #10565) supplemented with B27 (Invitrogen, #17504-044)). No human embryos were destroyed in the process of obtaining stem cells for these methods. Furthermore, the plurality of stem cells is not obtained by the prior destruction of human embryos.
# Unless otherwise noted, basal medium was supplemented with […] human Activin A (Peprotech, #120-14). When indicated, basal medium was also supplemented with an effective amount of, e.g., a growth factor such as […] human Wnt3a (R&D, #5036-WN-010), an isoform-specific P13K inhibitor or an mTOR inhibitor. […]
# To prepare the cells for flow cytometry, hESC-derived cells grown under endoderm differentiation conditions were dissociated using Accutase (Innovative Cell technologies, #AT-104). Briefly, the cells were washed once in PBS, incubated with Accutase for 10 minutes at room temperature, pelleted, and washed in cold PBS. The Accutase-dissociated hESC-derived cell samples were stained with anti-CXC4 antibody, anti-SOX17 antibody, or anti-FoxA2 antibody. Additional cell samples were stained with isotype control antibodies (e.g., IgG1 or IgG2).
# The cells that were to be stained with anti-CXCR4 antibody were washed once with cold DPBS and then directly stained with mouse anti-human CD184 (CXCR4)-IgG2-PE (BD, #555974) for one hour at 4° C. The cells that were to be stained with anti-SOX17 antibody or anti-FoxA2 antibody were first fixed for 25 minutes at 4° C. in fixation buffer (BD, #554655) and permeabilized for 30 minutes on ice in Perm Buffer III (BD, #554656). Anti-SOX17 staining was performed using a mouse anti-SOX17 IgG1-PE antibody (BD, #561591) at room temperature for 30 minutes. Anti-FoxA2 staining was performed using a mouse anti-human FoxA2 IgG1 (BD, #561589) under the same conditions. A control sample of cells were fixed as described above and stained with either an anti-IgG1-PE antibody (BD, #554680) at room temperature for 30 minutes or an anti-IgG2-PE antibody (BD, #55574) for one hour at 4° C.
# The antibody-stained hESC-derived cells were then analyzed via flow cytometry using a BD LSRFortessa™ cell analyzer. […] Approximately 1×10^6 cells were analyzed per sample.
# [3] = system: human embryonic stem cells (hESC); assay: AlphaLISA of SOX17 and OCT4 in hESC-derived cells; assay type: cell-based
# Description: To detect OCT4, the cells were washed three times in PBS and lysed with 50 ul AlphaLISA Lysis Buffer (Perkin Elmer, #AL003C). The lysis buffer was added to each cell sample and mixed with the cells five times. The cell samples were then incubated in a plate shaker at room temperature for 15 minutes. 5 μl of the lysate from each sample was then transferred to a 384 well OptiPlate (Perkin Elmer, #6005629). 5 μl of 10 ug/ml anti-rabbit acceptor bead (Perkin Elmer, #AL104M) and […] of 0.2 nM of rabbit anti-OCT4 antibody (Cell Signaling, #2890) was added to each well and incubated for 2 hours at room temperature. Following the incubation, 5 μl of 0.5 nM mouse anti-OCT4 antibody (BD, #611203) and […] of 0.5 nM biotinylated goat anti-mouse antibody (Invitrogen, #B2763) were added to each well and incubated at room temperature for 2 hours. Following the incubation, […] of streptavidin donor beads (Perkin Elmer, #6760002B) were added to each well and incubated for 30 minutes. The OptiPlates were then analyzed using an Envision Multilabel Plate Reader (Perkin Elmer, #2104-0010). All beads and antibodies were diluted as necessary in IAB Buffer (Perkin Elmer, #AL000C)+50 mM NaCl. Four replicate assays were performed.
# To detect SOX17, the cells were washed three times in PBS and lysed with 50 ul Roche Complete Lysis Buffer (Roche, #04719956001). The lysis buffer was added to each cell sample and mixed with the cells five times. The cell samples were then incubated in a plate shaker at room temperature for 15 minutes. 5 μl of the lysate from each sample was then transferred to a 384 well OptiPlate (Perkin Elmer, #6005629). 5 μl of 10 ug/ml anti-rabbit acceptor bead (Perkin Elmer, #AL104M) and […] of 1 nM of rabbit anti-SOX17 antibody (Sigma, #AV33271) was added to each well and incubated for 2 hours at room temperature. Following the incubation, 5 μl of 0.5 nM mouse anti-SOX antibody (Sigma, #SAB3300093) and […] of 0.5 nM biotinylated goat anti-mouse antibody (Invitrogen, #B2763) were added to each well and incubated at room temperature for 2 hours. Following the incubation, […] of streptavidin donor beads (Perkin Elmer, #6760002B) were added to each well and incubated for 30 minutes. The OptiPlates were then analyzed using an Envision Multilabel Plate Reader (Perkin Elmer, #2104-0010). All beads and antibodies were diluted as necessary in IAB Buffer (Perkin Elmer, #AL000C) Four replicate assays were performed.
# After a 3-day treatment, cells were harvested and stained with anti-SOX17 antibody as described above in preparation for AlphaLISA analysis.
# Akt = assay: In vitro kinase profile; assay type: biochemical
# Description: (§1) The effect of each compound on the PI3K/AKT/MTOR pathway was evaluated in two ways: via a kinase profile (FIG. 23) and via phospho imaging assays (i.e., immunofluorescence assays using antibodies specific for the phosphorylated form of mTOR or AKT). In vitro kinase profiling provided percent inhibition for numerous targets within the PI3K cell signaling pathway, and cell-based imaging assays were performed to directly visualize the effect of each compound on phosphorylated Akt and phosphorylated mTOR in the cell system used for differentiation.
# phosphorylated mTOR = assay: Phospho imaging assay (immunofluorescence); assay type: cell-based, human
# Description: as §1
# (§2) In column 2 of Table 6, the PI3K alpha_MTOR score reflects the ability of a compound to inhibit the phosphorylation of PI3K alpha and mTOR, where + indicates minimal inhibition, and +++ indicates maximal inhibition. In column 3 of Table 6, the score indicates the ratio of phosphorylated mTOR (as measured by fluorescence intensity) in cells treated with a compound and the phosphorylated mTOR (as measured by fluorescence intensity) in cells that were not treated with the compound. In column 4 of Table 6, the score indicates the ratio of phosphorylated AKT (as measured by fluorescence intensity) in cells treated with a compound and the phosphorylated AKT (as measured by fluorescence intensity) in cells that were not treated with the compound. A reported effect of AKT inhibitors is an increase in phosphorylated AKT.
# phosphorylated AKT = assay: Phospho imaging assay (immunofluorescence); assay type: cell-based, human
# Description: as §1, §2
# mTOR = mTOR (Homo sapiens, UniProt P42345); assay: In vitro kinase profile, PI3K alpha_MTOR score; assay type: biochemical
# Description: as §1, §2
# [4] = system: human embryonic stem cells (hESC); assay: Dose response with Activin A for optimal concentration (SOX17, cell death); assay type: cell-based
# Description: To facilitate extended characterization, it was necessary to determine the optimal concentration of each of the compounds for use subsequent experiments. The optimal concentration of each compound was determined based on two parameters: highest efficiency of endoderm differentiation and low toxicity. Each compound was tested with Activin A in a dose response manner. The concentration that gave the highest % SOX17 expressing cells at Day 3 without causing more than 30% cell death compared to control was determined for each compound. The yield of differentiation went from 4% to 81% SOX17+ cells at day 3.
# PI3K alpha = PI3K alpha (Homo sapiens, UniProt P42336); assay: In vitro kinase profile, PI3K alpha_MTOR score; assay type: biochemical
# Sequence of PI3K alpha (P42336 whole entry, species assumed): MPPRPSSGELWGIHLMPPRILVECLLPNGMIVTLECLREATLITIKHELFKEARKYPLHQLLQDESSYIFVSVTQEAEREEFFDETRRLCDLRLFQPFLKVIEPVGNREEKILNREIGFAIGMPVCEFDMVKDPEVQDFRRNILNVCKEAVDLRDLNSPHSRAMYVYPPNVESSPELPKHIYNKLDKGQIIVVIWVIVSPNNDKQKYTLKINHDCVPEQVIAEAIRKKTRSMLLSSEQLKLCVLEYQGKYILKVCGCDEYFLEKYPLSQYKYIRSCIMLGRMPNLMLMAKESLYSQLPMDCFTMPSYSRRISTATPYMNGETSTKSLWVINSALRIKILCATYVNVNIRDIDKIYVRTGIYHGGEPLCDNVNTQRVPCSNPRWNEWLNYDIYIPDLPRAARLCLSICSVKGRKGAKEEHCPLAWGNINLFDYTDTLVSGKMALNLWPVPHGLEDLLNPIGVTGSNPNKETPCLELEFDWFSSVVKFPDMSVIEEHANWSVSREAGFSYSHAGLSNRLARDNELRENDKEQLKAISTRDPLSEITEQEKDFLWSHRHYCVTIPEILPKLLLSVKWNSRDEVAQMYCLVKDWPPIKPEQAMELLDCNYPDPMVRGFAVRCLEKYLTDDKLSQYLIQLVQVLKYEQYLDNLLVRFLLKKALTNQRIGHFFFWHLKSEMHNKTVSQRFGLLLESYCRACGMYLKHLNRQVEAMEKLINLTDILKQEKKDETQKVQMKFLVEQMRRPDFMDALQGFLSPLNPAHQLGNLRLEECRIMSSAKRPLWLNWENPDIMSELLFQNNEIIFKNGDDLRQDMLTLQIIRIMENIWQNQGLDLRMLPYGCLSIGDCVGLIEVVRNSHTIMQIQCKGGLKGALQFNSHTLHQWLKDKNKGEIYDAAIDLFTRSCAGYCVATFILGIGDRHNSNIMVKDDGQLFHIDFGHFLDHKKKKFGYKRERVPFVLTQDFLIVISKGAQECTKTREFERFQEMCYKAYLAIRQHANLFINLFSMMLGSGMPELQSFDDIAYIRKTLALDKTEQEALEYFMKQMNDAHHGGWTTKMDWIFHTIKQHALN
# Sequence of PI3K alpha (P27986 whole entry partner, species assumed): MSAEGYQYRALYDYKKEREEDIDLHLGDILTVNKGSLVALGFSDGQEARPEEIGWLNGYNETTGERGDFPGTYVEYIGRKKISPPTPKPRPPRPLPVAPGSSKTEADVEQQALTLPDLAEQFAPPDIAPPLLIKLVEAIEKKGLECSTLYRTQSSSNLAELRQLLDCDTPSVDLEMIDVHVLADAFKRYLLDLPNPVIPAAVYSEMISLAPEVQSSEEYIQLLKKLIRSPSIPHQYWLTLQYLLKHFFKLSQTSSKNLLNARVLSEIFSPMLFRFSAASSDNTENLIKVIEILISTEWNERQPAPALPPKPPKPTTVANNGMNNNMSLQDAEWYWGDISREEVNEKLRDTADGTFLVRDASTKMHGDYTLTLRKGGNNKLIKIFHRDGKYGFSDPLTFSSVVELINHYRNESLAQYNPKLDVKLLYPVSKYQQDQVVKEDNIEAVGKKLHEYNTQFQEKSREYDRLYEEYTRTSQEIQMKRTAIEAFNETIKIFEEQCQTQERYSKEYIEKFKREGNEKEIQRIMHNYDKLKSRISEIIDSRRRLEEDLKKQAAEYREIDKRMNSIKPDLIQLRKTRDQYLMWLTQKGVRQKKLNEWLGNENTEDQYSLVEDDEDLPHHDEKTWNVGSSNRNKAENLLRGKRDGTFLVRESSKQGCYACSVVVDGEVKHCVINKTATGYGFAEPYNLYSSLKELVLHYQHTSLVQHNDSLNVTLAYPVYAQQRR
# Description: as §1, §2
# [5] = system: hESC-derived endoderm cells; assay: Hepatocyte differentiation of endoderm cells, flow cytometry; assay type: cell-based, human; settings: hepatoblast medium in the absence of FGF4 and BMP2
# Description: After 10-day treatment, the endoderm-derived cells were harvested using TrypLE. Briefly, the cells were washed once in PBS, incubated with TrypLE for 5 minutes at 37° C. The incubated cells were then diluted 10-fold with PBS, pelleted, and prepared for further analysis.
# Prior to flow cytometry analysis, the Accutase-dissociated endoderm-derived cell samples were stained with an anti-AFP primary antibody followed by a secondary antibody.
# The harvested endoderm-derived cells were washed with cold DPBS. […] The cells were washed three more times in permeabilization/wash buffer prior to flow cytometry analysis.
# HepG2 cells, which were derived from a well-differentiated hepatocellular carcinoma, were also stained as a positive control. The cells were analyzed via flow cytometry as described above. Approximately 1.5×10^6 cells were analyzed per sample.
# Endoderm cells were treated with different combinations of growth factors and tested for their capability to differentiate into hepatocytes. hESC were differentiated into endoderm cells as described above. […] After 10 days of treatment, the endoderm-derived cells were prepared for flow cytometry and imaging analysis as described above.
# An additional control sample was prepared in which endoderm cells obtained by culture with Activin A alone were cultured in hepatoblast medium in the absence of any additional growth factors. […]
# [6] = time course, Activin A + 750 nM Compound A, no Wnt3a, day 5
# [7] = dose response of Compound A with Activin A
# [8] = Activin A + 750 nM inhibitor, no Wnt3a, 3-day treatment
molecule,measurement,setting,value
"CS(=O)(=O)N1CCN(Cc2cc3nc(-c4cccc5[nH]ncc45)nc(N4CCOCC4)c3s2)CC1 [Compound A, 4-[2-(1H-indazol-4-yl)-6-[(4-methylsulfonylpiperazin-1-yl)methyl]thieno[3,2-d]pyrimidin-4-yl]morpholine]",viability and proliferation (impedance signal),hESC-derived cells,remain viable and proliferative past day 4
same,viability (ATP levels),[1],greater viability at 7 days
same,% of hESC-derived cells expressing SOX17,"[2]; Activin A + Wnt3a + 500 nM inhibitor, 3-day treatment",93.5-93.9%
same,% of hESC-derived cells expressing SOX17,"[2]; dose response, Activin A + 750 nM Compound A, no Wnt3a, 3-day treatment",84%
same,% of hESC-derived cells expressing SOX17,"[2]; isoform-specific PI3K inhibitor + Activin A alone, 3-day treatment",about 77.35%
same,% of hESC-derived cells expressing CXCR4,[2]; [6],82%
same,% of hESC-derived cells expressing FoxA2,[2]; [6],87%
same,% of hESC-derived cells expressing SOX17,[2]; [6],91%
same,OCT4 expression (AlphaLISA),[3]; [7],decreases
same,SOX17 expression (AlphaLISA),[3]; [7],increases with increasing concentrations of Compound A up to 750 nM
CCNC(=O)Nc1ccc2ncc(Nc3ccc(C)cc3)nc2n1 [Compound D1066],reduction of phosphorylation of Akt (FIG. 23),Akt,did not show reduction of phosphorylation of mTOR or Akt
same,effect on mTOR phosphorylation in cell-based imaging assays,phosphorylated mTOR,did not exhibit any effects on Akt or mTOR phosphorylation
same,effect on Akt phosphorylation in cell-based imaging assays,phosphorylated AKT,did not exhibit any effects on Akt or mTOR phosphorylation
same,reduction of phosphorylation of mTOR (FIG. 23),mTOR,did not show reduction of phosphorylation of mTOR or Akt
CO[C@@H]1[C@H](N(C)C(=O)c2ccccc2)C[C@H]2O[C@]1(C)n1c3ccccc3c3c4c(c5c6ccccc6n2c5c31)C(=O)NC4 [PKC412],toxicity,[4],may be toxic
same,reduction of phosphorylation of mTOR (FIG. 23),mTOR,potent reduction of phosphorylation
COc1ccc(COc2cc3oc(=O)c4cc(C(C)O)ccc4c3cc2OC)cc1 (stereo not drawn) [Palomid 529],reduction of phosphorylation of Akt (FIG. 23),Akt,did not show reduction of phosphorylation of mTOR or Akt
same,effect on mTOR phosphorylation in cell-based imaging assays,phosphorylated mTOR,did not exhibit any effects on Akt or mTOR phosphorylation
same,effect on Akt phosphorylation in cell-based imaging assays,phosphorylated AKT,did not exhibit any effects on Akt or mTOR phosphorylation
same,reduction of phosphorylation of mTOR (FIG. 23),mTOR,did not show reduction of phosphorylation of mTOR or Akt
CO[C@H]1C[C@@H]2CC[C@@H](C)[C@@](O)(O2)C(=O)C(=O)N2CCCC[C@H]2C(=O)O[C@H]([C@H](C)C[C@@H]2CC[C@@H](OCCO)[C@H](OC)C2)CC(=O)[C@H](C)/C=C(\C)[C@@H](O)[C@@H](OC)C(=O)[C@H](C)C[C@H](C)/C=C/C=C/C=C/1C [everolimus],Avg(Avg (Ph MTOR_60m_%C # Spots)),phosphorylated mTOR; 1 h,36.46 %C
same,"endoderm conversion (SOX17, FoxA2, CXCR4 flow cytometry)",[2]; [8],higher degree of endoderm conversion
same,endoderm conversion (SOX17 AlphaLISA),[3]; [8],better endoderm conversion than cells cultured in Activin A alone or cells cultured with an Akt inhibitor
same,PI3K alpha_MTOR score: PI3K alpha,PI3K alpha,PI3K alpha+_MTOR+
same,PI3K alpha_MTOR score: MTOR,mTOR,PI3K alpha+_MTOR+
B1,% of endoderm-derived cells expressing AFP,[5],7.65%
same,% of hESC-derived cells expressing SOX17,"[2]; Activin A alone, 3-day treatment",20%
